Results on 13 molecules are retold here after publication PMC6154633, “In Vitro Anticancer Activity and Structural Characterization of Ubiquinones from Antrodia cinnamomea Mycelium” (Molecules : A Journal of Synthetic Chemistry and Natural …, 2017).

pIC50: −log10 of the molar value.

One test has as its system MDCK cells. Nature of the test: Cytotoxicity, cell counting kit-8 assay, MDCK normal cell line. Format: cell-based. The conditions noted are these: Canis lupus familiaris, non-malignant cell line, 24 h treatment, mean n = 3. As to the method:
(§1) Three human cancer cell lines (A549, HepG2 and PC3) and normal cell line (MDCK) were obtained from the ATCC (Manassas, VA, USA) and grown on Eagle’s minimum essential medium (EMEM, GIBCO, Waltham, MA, USA) supplemented with F12 medium containing 10% FBS, 100 IU/mL penicillin and 100 μg/mL streptomycin [17].
(§2) Viability of the human cancer cell lines and normal cell line treated with different concentrations of A. cinnamomea extracts, subfractions, and isolates was evaluated using the cell counting kit-8 assay. Briefly, a total of 5 × 10^3 cells/well (A549, HepG2, PC3, or MDCK cells) were seeded into 96-well plates for 12 h, and the cells were treated with various concentrations of the isolated compounds (0.01–100 μM, double dilution method) for 24 h. The original medium was removed, 10% of the cell counting kit-8 in PBS was added to each well, and the plates were incubated for 2 h. The absorbance was measured at 540 nm using an enzyme-linked immunosorbent assay (ELISA) plate reader.
(§3) All experiments were carried out in triplicate, and each experiment was repeated three times. Data analysis was carried out using SPSS statistical package version 18.0 (SPSS, Inc., Armonk, NY, USA). The IC50 values (the concentration of drug necessary to induce 50% inhibition) were measured for all of the tested drugs using the Probit test in the SPSS software. The cell cycle distribution values of mean and standard deviation (mean ± SD) and 95% confidence intervals (CI) of means to verify the statistical significance of all parameters were calculated. The p-values of < 0.05 were adopted as statistically significant. All data are presented in this report as means ± SD of three replicates from three separate experiments.
(In general: Tetrazolium assays rely on reduction of a dye to a coloured formazan, in cell work by metabolically active cells.)

Another test deals with A549 cells. Kind of test: Cytotoxicity, cell counting kit-8 assay, A549. Format: cell-based. The conditions noted are these: Homo sapiens, mean n = 3. Here is the method:
as §1, §2, §3

Test [1] has as its system HepG2 cells. Nature of the test: Cytotoxicity, cell counting kit-8 assay, HepG2. Type of test: cell-based. The note with it: Homo sapiens, 24 h treatment, mean n = 3. Here is the method:
as §1, §2, §3

Another test relates to PC3 cells. Kind of test: Cytotoxicity, cell counting kit-8 assay, PC3. Format: cell-based. The note with it: Homo sapiens, PC-3, mean n = 3. As to the method: as §1, §2, §3
In test [2] the test system is A549, HepG2, and PC3 cell lines. Nature of the test: Cytotoxicity against three human cancer cell lines (summary statements). Type of test: cell-based. The conditions noted are these: in words. As to the method: as §1, §2, §3
The test system of test [3] is HepG2 cells. Nature of the test: Cell cycle distribution analysis by flow cytometry (PI staining). Type of test: cell-based, human. The conditions noted are these: for G1 (%) / G2-M (%) / S (%) / sub G1 (%): 24 h, HepG2, mean ± SD. Here is the method: Stock solutions of 4-acetylantrocamol LT3 (20 mM) were prepared by dissolving them in DMSO, and appropriate working dilutions were prepared with the cell culture medium prior to the experiments. For cell cycle distribution analysis, HepG2 cells were treated with DMSO (control) and 4-acetylantrocamol LT3 for 24 h. The cells were then fixed in ice-cold 70% methanol for overnight. After an additional wash with PBS, the cell pellets were stained with 1 mL of propidium iodide (PI) staining solution containing 200 μg of PI in 1 mL of PBS containing 2 mg of DNase free RNase for 30 min. Acquisition and analysis were performed by flow cytometry (FACSCalibur flow cytometer, Becton, Dickinson and Co., Franklin Lakes, NJ, USA) with excitation at 488 nm. Data on each sample represent the percentage of cells in the sub-G1, G1, S, G2/M phases of the cell cycle, respectively.
as §3
A general note: Flow cytometry measures light scatter and fluorescence of single cells or particles in a stream.

For `COC1=C(OC)[C@H](O)[C@H](C/C=C(\C)CC/C=C(\C)CCC=C(C)C)[C@@H](C)C1=O` [Compound 5, antroquinonol], the pIC50 was 4.98 in the test with MDCK cells; 6.38 in the test on A549 cells (A549, 24 h, 24 h treatment); 7.36 with HepG2 cells [1]; 7.14 in the test with PC3 cells (24 h treatment).

With `COC1=C(OC)C(=O)C(C/C=C(\C)CC/C=C(\C)CCC=C(C)C)=C(C)C1=O` [Compound 3, quinone Q3], the pIC50 is under 4.00 in the test with MDCK cells; 5.38 with A549 cells (A549, 24 h, 24 h treatment); under 4.00 in the test with HepG2 cells [1]; 7.22 with PC3 cells (24 h treatment).

In the case of `COc1cc(C)c(OC)c2c1OCO2` [Compound 9, 4,7-dimethoxy-5-methyl-1,3-benzodioxole], the negative logarithm of the IC50 (pIC50) with MDCK cells is under 4.00; in the test on A549 cells (A549, 24 h, 24 h treatment), under 4.00; with HepG2 cells [1], under 4.00; in the test on PC3 cells (24 h treatment) it was 4.88. In test [2], the “activity against the cancer cell lines” value was “poor activity”.

On to `COC1=C(OC)[C@H](OC(C)=O)[C@H](C/C=C(\C)CC/C=C(\C)CCC=C(C)C)[C@@H](C)C1=O` [Compound 6, 4-acetylantroquinonol], for which the pIC50 in the test with MDCK cells was 4.38; in the test with A549 cells (A549, 24 h, 24 h treatment), 6.21; in the test on HepG2 cells [1] it was 7.12; with PC3 cells (24 h treatment) it was 5.64.

With `CC(=O)O[C@H]1C(=O)[C@@]2(C)[C@H]([C@H](OC(=O)c3ccccc3)[C@]3(O)C[C@H](OC(=O)[C@H](O)[C@@H](NC(=O)c4ccccc4)c4ccccc4)C(C)=C1C3(C)C)[C@]1(OC(C)=O)CO[C@@H]1C[C@@H]2O` [Taxol, reference compound], the pIC50 in the test with A549 cells (A549, positive control, unit given in row label) is 9.45; in the test on PC3 cells (positive control, unit given in row label) it was 9.34.

In the case of `COC1=CC(=O)C(CC=C(C)CCC=C(C)CCC=C(C)C)=C(C)C1=O` [Compound 1, 5-methoxy-3-methyl-2-(3,7,11-trimethyldodeca-2,6,10-trienyl)cyclohexa-2,5-diene-1,4-dione], the pIC50 is under 4.00 in the test on MDCK cells; 6.42 in the test with A549 cells (A549, 24 h, 24 h treatment); under 4.00 in the test on HepG2 cells [1]; 7.85 with PC3 cells (24 h treatment).

Consider `COC1=C(OC)[C@H](OC(C)=O)[C@H](C/C=C(\C)CC/C=C(\C)C/C=C/C(C)(C)O)[C@@H](C)C1=O` [Compound 2, 4-acetylantrocamol LT3], for which the pIC50 with MDCK cells was under 4.00; in the test on A549 cells (A549, 24 h, 24 h treatment), 7.57; with HepG2 cells [1] it was 6.89; with PC3 cells (24 h treatment), 5.37. Besides, the figures for the “G1 (%)” value in the test with HepG2 cells [3] (1 μM) and in the test on HepG2 cells [3] (10 μM) were 37.4 ± 4.2% and 32.9 ± 2.4%, respectively. The “G2-M (%)” value in the test with HepG2 cells [3] (1 μM) turned out to be 33.6 ± 4.7%; with HepG2 cells [3] (10 μM), 33.6 ± 5.6%. In addition, the “S (%)” value is 15.4 ± 1.6% in the test with HepG2 cells [3] (1 μM) and 19.3 ± 4.9% in the test on HepG2 cells [3] (10 μM). The “sub G1 (%)” value with HepG2 cells [3] (1 μM) amounted to 6.0 ± 0.7%; in the test on HepG2 cells [3] (10 μM), 9.2 ± 2.1%. Moreover, the “sub-G1 phase accumulation compared with control cells” value with HepG2 cells [3] (HepG2, 24 h, dose dependent) was 4–7 fold.

As to `COC1=C(OC)[C@H](O)[C@H](C/C=C(\C)CC/C=C(\C)C[C@H]2C[C@@H](C)C(=O)O2)[C@@H](C)C1=O` [Compound 7, antroquinonol B], the pIC50 in the test with MDCK cells was under 4.00; in the test on A549 cells (A549, 24 h, 24 h treatment), 5.22; in the test on HepG2 cells [1], 4.67; with PC3 cells (24 h treatment), 5.99.

As for `COC1=C(OC)[C@H](O)[C@H](C/C=C(\C)CC/C=C(\C)C/C=C/C(C)(C)O)[C@@H](C)C1=O` [Compound 4, antrocamol LT3], the pIC50 was under 4.00 with MDCK cells, 6.97 with HepG2 cells [1] and 9.00 with PC3 cells (24 h treatment).

Take `COc1cc(C)c(O)c(OC)c1O` [Compound 10, 2,4-dimethoxy-6-methyl-benzene-1,3-diol]: the pIC50 is under 4.00 in the test on MDCK cells; under 4.00 with A549 cells (A549, 24 h, 24 h treatment); under 4.00 in the test on HepG2 cells [1]; under 4.00 with PC3 cells (24 h treatment). In test [2], the “activity against the cancer cell lines” value is “poor activity”.

For the molecule `CC(C)=CCOc1ccc(C2=C(CC(C)C)C(=O)OC2=O)cc1` [Compound 11, antrodin A], the pIC50 was under 4.00 in the test with MDCK cells; under 4.00 in the test with A549 cells (A549, 24 h, 24 h treatment); 4.04 in the test with HepG2 cells [1]; under 4.00 in the test with PC3 cells (24 h treatment). Further, in test [2], the “activity against the cancer cell lines” value is reported as “poor activity”.

With `COC1=C(OC)[C@H](OC(C)=O)[C@H](C/C=C(\C)CC/C=C(\C)C[C@H]2C[C@@H](C)C(=O)O2)[C@@H](C)C1=O` [Compound 8, 4-acetylantroquinonol B], the pIC50 with MDCK cells is under 4.00; in the test with A549 cells (A549, 24 h, 24 h treatment), 4.45; in the test on HepG2 cells [1], under 4.00; with PC3 cells (24 h treatment), 4.69.

The molecule `COc1cc([C@@H]2c3cc4c(cc3[C@@H](O[C@@H]3O[C@@H]5CO[C@@H](C)O[C@H]5[C@H](O)[C@H]3O)[C@H]3COC(=O)[C@H]23)OCO4)cc(OC)c1O` [Vepesid, reference compound] gave a pIC50 with HepG2 cells [1] of 5.39.

A word on the pIC50: it is −log10 of the IC50, conventionally taken in molar units. The low end stands for a large IC50, the high end for a small IC50.
